Patent US20130310374A1, “Substituted Imidazoquinoline Derivatives” (PIRAMAL ENTERPRISES LIMITED`, priority 2010, published 2013)

Legend:
Type in all cases: cell-based
PI3K/mTOR pathway = experiment: Western blot analysis in A2780 ovarian cancer cell line; settings: A2780 cells treated for 1 hour; FIG. 1A-1E
Experimental: Protocol for Western Blot Analysis
A2780 ovarian cancer cell line (ATCC) were grown to approximately 70% confluence in 100-mm tissue culture dishes and then treated for 1 hour with […] compounds of Example 2, 3, 5, 16, 19, 55 and 59. Total protein was extracted using cell lysis buffer (NaCl […], NP40 0.67%, Tris-Cl, pH 7.5, 67 mM) containing protease inhibitors and phosphatase inhibitors (Beta-glycerol phosphate 40 mM, DTT 1 mM, NaF 0.4 mM, Sodium-Orthovanadate 0.4 mM) at 4° C. for 1 hour. Cell lysates were then centrifuged at 2×10^4 g for 10 minutes at 4° C., and the protein concentration of the supernatant was quantified using the Bradford's method (BioRad, USA). For SDS-PAGE, 50 μg protein was loaded in SDS-PAGE, transferred to a polyvinylidene difluoride membrane (Bio-Rad, USA) and blocked with 5 mL buffer [5% skim milk and 0.1% Tween] for 1 hour 30 minutes. Membrane were probed with primary antibody (all primary antibodies were from cell signaling with 1:1000 in TBST solution) of respective protein at 4° C. overnight. Peroxidase-labeled anti-rabbit or anti-mouse antibodies (Santacruze, USA) were used as the secondary antibody. Actin and respective whole protein levels were used as the control for protein loading. Protein antigens were detected using Chemiluminescent Substrate (Thermo scientific, USA) and exposed on Kodak station.

A2780 = experiment: Cytotoxicity propidium iodide assay, A2780; settings: Homo sapiens; A2780 (ovarian), 48 hours treatment; read-out: IC50 Values in μM, C1a
Outline: (§1)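 Compound exposure lasted 48 h at multiple concentrations, after an 18-24 h settling period at 37° C. with 5% CO2. Washed cells received propidium iodide ([…]) and went through an overnight freeze and thaw before fluorimetric reading; IC50 values came from percentages relative to non-treated cells.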

MDA MB 231 = experiment: Cytotoxicity propidium iodide assay, MDA MB 231; settings: Homo sapiens; MDA MB 231 (breast), 48 hours treatment; read-out: IC50 Values in μM, C3a
MDA MB 468 = experiment: Cytotoxicity propidium iodide assay, MDA MB 468; settings: Homo sapiens; MDA MB 468 (breast), 48 hours treatment; read-out: IC50 Values in μM, C3b
Outline: as §1

BT 549 = experiment: Cytotoxicity propidium iodide assay, BT 549; settings: Homo sapiens; BT 549 (breast), 48 hours treatment; read-out: IC50 Values in μM, C3c
Outline: as §1

AsPC 1 = experiment: Cytotoxicity propidium iodide assay, AsPC 1; settings: Homo sapiens, ASPC1; AsPC 1 (pancreatic), 48 hours treatment; read-out: IC50 Values in μM, C4b
LN18 = experiment: Cytotoxicity propidium iodide assay, LN18; settings: Homo sapiens, LN-18; LN18 (glioblastoma), 48 hours treatment; read-out: IC50 Values in μM, C5b
Experimental: The assay was designed as in the reference, Anticancer Drugs, 2002, 13, 1-8, the disclosure of which is incorporated herein by reference for the teaching of the assay.
Cells from cell lines (ATCC) as mentioned in the table given below were seeded at a density of 3000 cells/well in a white opaque 96-well plate. Following incubation at 37° C./5% CO2 for a period of 18-24 hours, the cells were treated with various concentrations (stock solution was prepared in DMSO and subsequent dilutions were made in media as per ATCC guidelines) of the compounds of the present invention for a period of 48 hours. At the end of treatment, the culture medium was discarded, the cells were washed with 1×PBS and 200 μL of […] propidium iodide was added to each well. The plates were frozen at […] overnight. For analysis, the plates were warmed to RT, allowed to thaw and were read in PoleStar fluorimeter with the fluorescence setting. The percentage of viable cells in the non-treated set of wells was considered to be 100 and the percentage viability following treatment was calculated accordingly. IC50 values were calculated from graphs plotted using these percentages. IC50 values for certain compounds of present invention are depicted in Table 1 and % Inhibition of certain compounds of present invention are depicted in Table 2.

K562 = experiment: Cytotoxicity propidium iodide assay, K562; settings: Homo sapiens; K562 (CML), 48 hours treatment; read-out: IC50 Values in μM, C6a
Outline: as §1

KCL22/SR = experiment: Cytotoxicity propidium iodide assay, KCL22/SR; settings: Homo sapiens, KCL-22; KCL22/SR (CML), 48 hours treatment; read-out: IC50 Values in μM, C6e
Outline: as §1

IFN-γ = experiment: Con-A-induced IFN-γ production from hPBMC; settings: Homo sapiens, concanavalin A 1 μg/mL, 18 hours
Experimental: Con-A-Induced IFN-γ Production from hPBMC
Peripheral blood was collected from normal healthy volunteers after informed consent. Peripheral blood mononuclear cells (hPBMC) were harvested using Ficoll-Hypaque density gradient centrifugation (1.077 g/mL; Sigma Aldrich). hPBMCs were resuspended in RPMI 1640 culture medium (Gibco BRL, Pasley, UK) containing 10% FCS, 100 U/mL penicillin (Sigma Chemical Co. St Louis, Mo.) and […] streptomycin (Sigma Chemical Co. St Louis, Mo.) at 1×10^6 cells/mL. 1×10^5 hPBMCs/well were pre-treated with 0.025 μM of compounds of present invention or 0.5% DMSO (vehicle control) for 30 minutes at 37° C. Subsequently, these cells were stimulated with 1 μg/mL concanavalin A (Sigma Chemical Co., St. Louis, Mo.). Following 18 hours of incubation at 37° C., supernatants were collected and stored at −70° C. until assayed for human IFN-γ by ELISA as described by the manufacturer (OptiEIA ELISA sets, BD BioSciences). In every experiment, cyclosporin (1 μM) was used as a positive control for inhibiting induced IFN-γ production. In all experiments, the toxicity of test compounds was ascertained, in parallel, using the MTS (3-(4,5-dimethylthiazol-2-yl)-5-(3-carboxymethoxyphenyl)-2-(4-sulfonyl)-2H-tetrazolium) assay as described in Am. J. Physiol. Cell Physiol., 2003, 285, C813-C822.

Row | Compound | Akt, S6 and 4EBP1 phosphorylation (Western blot) (PI3K/mTOR pathway) | IC50 (A2780) [µM] | IC50 (MDA MB 231) [µM] | IC50 (MDA MB 468) [µM] | IC50 (BT 549) [µM] | IC50 (AsPC 1) [µM] | IC50 (LN18) [µM] | IC50 (K562) [µM] | IC50 (KCL22/SR) [µM] | inhibition at 0.025 µM (IFN-γ) [%]
1 | CC(C)(C#N)c1ccc(-n2c(=O)n(CC#N)c3cnc4ccc(-c5cnc(N)c(C(F)(F)F)c5)cc4c32)cn1 [Example 16, 2-(5-(8-(6-Amino-5-(trifluoromethyl)pyridin-3-yl)-3-(cyanomethyl)-2-oxo-2,3-dihydro-1H-imidazo[4,5-c]quinolin-1-yl)pyridin-2-yl)-2-methylpropanenitrile] | inhibit Akt, S6 and 4EBP1 phosphorylation | 0.013 | 0.07 | 0.013 | 0.015 | 0.038 | 0.44 | 0.4 | 0.23 | 31
2 | Cn1c(=O)n(-c2ccc(C(C)(C)C#N)nc2)c2c3cc(-c4cnc(N)c(C(F)(F)F)c4)ccc3ncc21 [Example 3, 2-(5-(8-(6-Amino-5-(trifluoromethyl)pyridin-3-yl)-3-methyl-2-oxo-2,3-dihydro-1H-imidazo[4,5-c]quinolin-1-yl)pyridin-2-yl)-2-methylpropanenitrile] | inhibit Akt, S6 and 4EBP1 phosphorylation | < 0.005 | 0.014 | 0.06 | 0.03 | 0.019 | 0.144 | 0.056 | 0.06 | 98
3 | COc1ccc(-n2c(=O)n(C)c3cnc4ccc(-c5cnc(N)c(C(F)(F)F)c5)cc4c32)cn1 [Example 19, 8-(6-Amino-5-(trifluoromethyl)pyridin-3-yl)-1-(6-methoxypyridin-3-yl)-3-methyl-1H-imidazo[4,5-c]quinolin-2(3H)-one] | inhibit Akt, S6 and 4EBP1 phosphorylation | < 0.01 | 0.17 | 0.18 | 0.23 | 0.1 | 0.096 | 0.056 | 0.06 | 93
4 | Cn1c(=O)n(-c2ccc(C(C)(C)C#N)nc2)c2c3cc(-c4cnc5ccccc5c4)ccc3ncc21 [Example 2, 2-Methyl-2-(5-(3-methyl-2-oxo-8-(quinolin-3-yl)-2,3-dihydro-1H-imidazo[4,5-c]quinolin-1-yl)pyridin-2-yl)propanenitrile] | inhibit Akt, S6 and 4EBP1 phosphorylation | 0.024 | 0.07 | 0.3 | 0.9 | 0.09 | 0.33 | – | – | 58
5 | CS(=O)(=O)O.Cn1c(=O)n(-c2ccc(C(C)(C)C#N)nc2)c2c3cc(-c4cnc(N)c(C(F)(F)F)c4)ccc3ncc21 [Example 3a, 8-(6-Amino-5-(trifluoromethyl)pyridin-3-yl)-1-(6-(2-cyanopropan-2-yl)pyridin-3-yl)-3-methyl-2-oxo-2,3-dihydro-1H-imidazo[4,5-c]quinolin-5-ium methanesulfonate] | inhibit Akt, S6 and 4EBP1 phosphorylation | – | – | – | – | – | – | – | – | –
